The values below come from ChEMBL document CHEMBL1629615, “Intrapulmonary pharmacokinetics and pharmacodynamics of posaconazole at steady state in healthy subjects” (Antimicrob Agents Chemother, 2009).

The nature of data set [1]: Cmax in healthy human plasma at 200 mg, po every 12 hrs for 5 days. The format is ADME, organism-based. Details: dose 200 mg, route oral.
A short description of data set [2]: Cmax in healthy human alveolar cell at 200 mg, po every 12 hrs for 5 days. In kind it is ADME, organism-based, Lung, Pneumocyte. Set-up: dose 200 mg, route oral. Particulars: alveolar cells.
The nature of data set [3]: Cmax in healthy human lung epithelial lining fluid assessed as hydroxyitraconazole at 200 mg, po every 12 hrs for 5 days. The following applies: in vivo. The format is ADME, organism-based. Set-up: dose 200 mg, route oral.
Data set [4] is described as follows: AUC (0 to 24 hrs) in healthy human plasma at 200 mg, po every 12 hrs for 5 days. The format is ADME, organism-based. Details: dose 200 mg, time < 24 hr, route oral.
The nature of data set [5]: AUC (0 to 24 hrs) in healthy human lung epithelial lining fluid at 200 mg, po every 12 hrs for 5 days. The format is ADME, organism-based. Set-up: time < 24 hr, dose 200 mg, route oral.
Data set [6] is described as follows: AUC (0 to 24 hrs) in healthy human alveolar cell at 200 mg, po every 12 hrs for 5 days. In kind it is ADME, organism-based, Pneumocyte. Details: time < 24 hr, dose 200 mg, route oral. The following applies: alveolar cells.

With `CCC(C)n1ncn(-c2ccc(N3CCN(c4ccc(OCC5COC(Cn6cncn6)(c6ccc(Cl)cc6Cl)O5)cc4)CC3)cc2)c1=O` (stereo unspecified) [ITRACONAZOLE], the values for the Cmax in data set [1], in data set [2] and in data set [3] were 2100 ng/mL, 500 ng/mL and 5500 ng/mL, respectively. The AUC at 24 h in data set [4] came out at 34400 ng·h/mL; in data set [5] it was 7400 ng·h/mL; in data set [6], 101000 ng·h/mL.

The term Cmax denotes the peak of the concentration-time curve. Broadly, the AUC is concentration integrated over time. A higher AUC goes with high exposure.
